The kinase profiling compilation of Christmann-Franck et al. (2016)

Columns and labels:
Assay in all cases: radiometric filter-binding kinase assay
PTK6 (human) = PTK6 (human) (UniProt Q13882)
STK33 (human) = STK33 (human) (UniProt Q9BYT3)
AURKB (human) = AURKB (human) (UniProt Q96GD4)
PRKCG (human) = PRKCG (human) (UniProt P05129)
TEK (human) = TEK (human) (UniProt Q02763)
ZAP70 (human) = ZAP70 (human) (UniProt P43403)
[1] = system: OXSR1 (human), O95747 [T185E]
PHKG1 (human) = PHKG1 (human) (UniProt Q16816)
PHKG1 (human), sequence (Q16816 whole entry, looked up): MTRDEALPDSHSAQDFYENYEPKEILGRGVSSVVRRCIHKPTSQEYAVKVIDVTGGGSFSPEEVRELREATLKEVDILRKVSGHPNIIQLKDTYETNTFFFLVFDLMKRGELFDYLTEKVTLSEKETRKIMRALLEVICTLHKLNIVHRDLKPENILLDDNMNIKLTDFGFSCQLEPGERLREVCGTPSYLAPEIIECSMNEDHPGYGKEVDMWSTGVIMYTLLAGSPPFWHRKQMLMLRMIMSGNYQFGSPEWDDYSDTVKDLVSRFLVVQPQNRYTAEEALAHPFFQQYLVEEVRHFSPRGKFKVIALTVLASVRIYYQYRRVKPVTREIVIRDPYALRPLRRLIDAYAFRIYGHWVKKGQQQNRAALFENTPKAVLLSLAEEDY

STK16 (human) = STK16 (human) (UniProt O75716)
STK16 (human), sequence (O75716 whole entry, looked up): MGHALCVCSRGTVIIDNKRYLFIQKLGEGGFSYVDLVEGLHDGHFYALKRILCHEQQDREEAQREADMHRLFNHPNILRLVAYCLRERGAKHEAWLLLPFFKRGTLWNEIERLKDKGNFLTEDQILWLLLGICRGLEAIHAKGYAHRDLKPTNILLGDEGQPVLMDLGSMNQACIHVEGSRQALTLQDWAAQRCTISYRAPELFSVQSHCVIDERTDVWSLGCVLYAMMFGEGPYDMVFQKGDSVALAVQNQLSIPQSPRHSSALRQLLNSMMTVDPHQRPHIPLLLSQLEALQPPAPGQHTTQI

EIF2AK3 (human) = EIF2AK3 (human) (UniProt Q9NZJ5)
IRAK1 (human) = IRAK1 (human) (UniProt P51617)
IRAK1 (human), sequence (P51617 whole entry, looked up): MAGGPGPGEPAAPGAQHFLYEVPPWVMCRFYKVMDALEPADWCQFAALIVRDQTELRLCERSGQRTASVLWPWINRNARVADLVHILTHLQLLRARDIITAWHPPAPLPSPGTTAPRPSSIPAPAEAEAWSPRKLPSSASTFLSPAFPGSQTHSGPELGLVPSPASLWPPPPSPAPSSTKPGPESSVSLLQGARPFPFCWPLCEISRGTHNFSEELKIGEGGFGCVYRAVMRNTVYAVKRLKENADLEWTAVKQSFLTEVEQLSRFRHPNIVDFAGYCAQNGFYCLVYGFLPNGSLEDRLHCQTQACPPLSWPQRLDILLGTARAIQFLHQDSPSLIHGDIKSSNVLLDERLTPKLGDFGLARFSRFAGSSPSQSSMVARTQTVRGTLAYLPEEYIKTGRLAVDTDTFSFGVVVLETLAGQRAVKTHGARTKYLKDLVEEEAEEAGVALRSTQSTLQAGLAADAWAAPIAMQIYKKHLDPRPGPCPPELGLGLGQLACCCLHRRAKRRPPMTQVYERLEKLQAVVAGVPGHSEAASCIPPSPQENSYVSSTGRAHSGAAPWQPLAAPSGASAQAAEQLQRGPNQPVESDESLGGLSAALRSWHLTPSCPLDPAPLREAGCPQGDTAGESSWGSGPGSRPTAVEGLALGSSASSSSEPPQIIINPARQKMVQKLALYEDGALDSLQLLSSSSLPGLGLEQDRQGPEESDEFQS

TLK1 (human) = TLK1 (human) (UniProt Q9UKI8)
TLK1 (human), sequence (Q9UKI8 whole entry, looked up): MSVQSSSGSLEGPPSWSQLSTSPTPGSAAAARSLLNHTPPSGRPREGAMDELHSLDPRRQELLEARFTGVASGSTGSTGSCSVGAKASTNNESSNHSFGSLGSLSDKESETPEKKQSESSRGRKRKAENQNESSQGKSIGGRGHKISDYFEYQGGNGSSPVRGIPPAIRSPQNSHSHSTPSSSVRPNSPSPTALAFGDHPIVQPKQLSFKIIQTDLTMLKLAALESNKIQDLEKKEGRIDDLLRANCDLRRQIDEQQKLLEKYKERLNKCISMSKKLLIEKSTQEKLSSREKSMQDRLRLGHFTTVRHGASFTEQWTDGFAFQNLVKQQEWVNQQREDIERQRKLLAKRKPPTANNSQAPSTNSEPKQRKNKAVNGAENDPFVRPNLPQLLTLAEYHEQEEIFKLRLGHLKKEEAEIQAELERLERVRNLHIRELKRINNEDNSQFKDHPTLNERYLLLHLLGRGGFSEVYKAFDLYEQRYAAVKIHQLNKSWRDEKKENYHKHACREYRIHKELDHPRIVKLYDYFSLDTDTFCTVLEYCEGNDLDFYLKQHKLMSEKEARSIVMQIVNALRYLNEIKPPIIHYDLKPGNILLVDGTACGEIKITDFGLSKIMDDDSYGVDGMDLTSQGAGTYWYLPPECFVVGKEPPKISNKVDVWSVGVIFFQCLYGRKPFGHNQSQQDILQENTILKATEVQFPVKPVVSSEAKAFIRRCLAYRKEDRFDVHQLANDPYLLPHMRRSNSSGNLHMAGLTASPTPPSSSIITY

ABL1 (human) = ABL1 (human) (UniProt P00519)
ABL1 (human), sequence (P00519 whole entry, looked up): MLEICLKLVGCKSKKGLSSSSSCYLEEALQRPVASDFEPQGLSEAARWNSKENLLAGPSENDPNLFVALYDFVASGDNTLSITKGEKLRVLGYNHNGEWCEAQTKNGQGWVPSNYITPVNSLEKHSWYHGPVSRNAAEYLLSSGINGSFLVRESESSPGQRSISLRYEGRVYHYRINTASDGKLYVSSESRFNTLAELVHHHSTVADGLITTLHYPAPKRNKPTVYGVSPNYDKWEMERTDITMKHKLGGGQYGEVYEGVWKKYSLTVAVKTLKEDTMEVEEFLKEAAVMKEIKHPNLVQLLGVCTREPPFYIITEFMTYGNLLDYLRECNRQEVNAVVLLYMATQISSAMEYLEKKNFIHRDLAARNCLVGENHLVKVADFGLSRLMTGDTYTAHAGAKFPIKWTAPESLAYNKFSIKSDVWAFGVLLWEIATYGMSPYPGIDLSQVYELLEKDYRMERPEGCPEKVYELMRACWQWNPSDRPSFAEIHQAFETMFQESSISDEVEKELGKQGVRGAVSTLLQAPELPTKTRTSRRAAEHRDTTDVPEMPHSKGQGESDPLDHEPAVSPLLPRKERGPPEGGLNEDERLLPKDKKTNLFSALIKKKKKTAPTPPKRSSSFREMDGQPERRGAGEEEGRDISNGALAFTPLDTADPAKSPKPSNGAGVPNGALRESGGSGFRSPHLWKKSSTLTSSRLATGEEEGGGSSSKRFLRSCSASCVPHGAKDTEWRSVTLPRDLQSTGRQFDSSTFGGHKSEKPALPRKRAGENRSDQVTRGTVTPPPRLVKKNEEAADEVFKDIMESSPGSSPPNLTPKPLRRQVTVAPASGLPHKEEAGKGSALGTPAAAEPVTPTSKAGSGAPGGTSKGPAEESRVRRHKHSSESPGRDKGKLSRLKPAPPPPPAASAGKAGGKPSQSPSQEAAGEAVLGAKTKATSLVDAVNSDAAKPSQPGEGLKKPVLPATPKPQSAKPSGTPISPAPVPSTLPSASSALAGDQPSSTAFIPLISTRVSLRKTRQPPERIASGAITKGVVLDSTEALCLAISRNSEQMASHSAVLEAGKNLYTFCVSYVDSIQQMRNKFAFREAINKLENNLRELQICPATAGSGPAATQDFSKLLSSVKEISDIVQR

ZAP70 (human), sequence (P43403 whole entry, looked up): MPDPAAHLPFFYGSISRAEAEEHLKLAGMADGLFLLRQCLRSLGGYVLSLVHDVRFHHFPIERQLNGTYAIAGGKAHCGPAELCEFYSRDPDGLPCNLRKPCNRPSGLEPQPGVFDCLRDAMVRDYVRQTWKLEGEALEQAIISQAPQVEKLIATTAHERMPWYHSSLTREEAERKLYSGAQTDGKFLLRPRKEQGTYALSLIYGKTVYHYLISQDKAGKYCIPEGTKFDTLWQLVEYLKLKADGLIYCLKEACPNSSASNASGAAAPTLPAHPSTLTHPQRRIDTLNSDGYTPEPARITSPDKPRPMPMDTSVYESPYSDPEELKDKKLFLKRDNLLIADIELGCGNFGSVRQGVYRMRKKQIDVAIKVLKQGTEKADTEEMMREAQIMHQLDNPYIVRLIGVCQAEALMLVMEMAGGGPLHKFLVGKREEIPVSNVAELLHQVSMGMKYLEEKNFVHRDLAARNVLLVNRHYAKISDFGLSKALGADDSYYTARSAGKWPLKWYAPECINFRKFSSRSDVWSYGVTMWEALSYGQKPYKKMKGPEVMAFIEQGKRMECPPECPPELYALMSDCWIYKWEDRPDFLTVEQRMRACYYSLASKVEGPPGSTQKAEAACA
AURKB (human), sequence (Q96GD4 whole entry, looked up): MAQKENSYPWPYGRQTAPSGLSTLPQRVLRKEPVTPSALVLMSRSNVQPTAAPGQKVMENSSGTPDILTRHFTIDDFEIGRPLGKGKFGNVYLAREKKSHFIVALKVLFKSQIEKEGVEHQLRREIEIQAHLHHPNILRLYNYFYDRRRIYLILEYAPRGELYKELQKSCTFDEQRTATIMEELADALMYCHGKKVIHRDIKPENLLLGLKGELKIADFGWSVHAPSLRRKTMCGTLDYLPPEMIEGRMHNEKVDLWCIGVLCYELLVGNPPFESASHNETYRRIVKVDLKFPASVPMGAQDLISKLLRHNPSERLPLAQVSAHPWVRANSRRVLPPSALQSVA

Row | Structure (SMILES) | residual activity (PTK6 (human); compound 0.1 µM) [%] | residual activity (PTK6 (human); compound 1.0 µM) [%] | residual activity (STK33 (human); compound 0.1 µM) [%] | residual activity (STK33 (human); compound 1.0 µM) [%] | residual activity (AURKB (human); compound 1.0 µM) [%] | residual activity (PRKCG (human); compound 1.0 µM) [%] | residual activity (TEK (human); compound 1.0 µM) [%] | residual activity (ZAP70 (human); compound 1.0 µM) [%] | residual activity (PHKG1 (human); compound 1.0 µM) [%] | residual activity (STK16 (human); compound 1.0 µM) [%] | residual activity (PTK6 (human); compound 10.0 µM) [%] | residual activity (STK33 (human); compound 10.0 µM) [%] | residual activity (AURKB (human); compound 10.0 µM) [%] | residual activity (PRKCG (human); compound 10.0 µM) [%] | residual activity (TEK (human); compound 10.0 µM) [%] | residual activity (ZAP70 (human); compound 10.0 µM) [%] | residual activity (PHKG1 (human); compound 10.0 µM) [%] | residual activity (STK16 (human); compound 10.0 µM) [%] | residual activity (ABL1 (human); compound 1.0 µM) [%] | residual activity (ABL1 (human); compound 10.0 µM) [%] | further results
1 | O=C(NCCCNc1nc(Nc2cccc(CN3CCOCC3)c2)ncc1C1CC1)C1CCC1 | 96 | 110 | 80 | 52 | 54 | 98 | 81 | 94 | 28 | 104 |  |  |  |  |  |  |  |  |  |  | residual activity (AURKB (human); compound 0.1 µM): 80%; residual activity (PRKCG (human); compound 0.1 µM): 88%; residual activity (TEK (human); compound 0.1 µM): 95%; residual activity (ZAP70 (human); compound 0.1 µM): 92%; residual activity ([1]; compound 0.1 µM): 83%; residual activity ([1]; compound 1.0 µM): 94%; residual activity (PHKG1 (human); compound 0.1 µM): 78%; residual activity (EIF2AK3 (human); compound 0.1 µM): 92%; residual activity (EIF2AK3 (human); compound 1.0 µM): 86%; residual activity (IRAK1 (human); compound 0.1 µM): 96%; residual activity (IRAK1 (human); compound 1.0 µM): 79%; residual activity (TLK1 (human); compound 0.1 µM): 90%; residual activity (TLK1 (human); compound 1.0 µM): 108%
2 | NC(=O)c1c(NC(=O)C2CC2)sc2c1CCCC2 |  | 114 |  | 87 | 79 | 98 |  | 94 | 108 | 107 | 95 | 74 | 62 | 110 | 75 | 80 | 62 | 92 | 93 | 82 | 
3 | c1ccc2c(-c3cnn4cc(-c5ccc(N6CCNCC6)cc5)cnc34)ccnc2c1 | 78 | 21 | 81 | 44 | 76 | 97 | 86 | 69 | 60 | 98 | 5 | 11 | 47 | 92 | 30 | 101 | 21 | 84 | 6 | 4 | residual activity (AURKB (human); compound 0.1 µM): 95%; residual activity (PRKCG (human); compound 0.1 µM): 99%; residual activity (TEK (human); compound 0.1 µM): 102%; residual activity (ZAP70 (human); compound 0.1 µM): 86%; residual activity (PHKG1 (human); compound 0.1 µM): 85%; residual activity (STK16 (human); compound 0.1 µM): 97%; residual activity (ABL1 (human); compound 0.1 µM): 43%
4 | CCOC(=O)c1ccc(N2NC(=O)/C(=C/c3ccc([N+](=O)[O-])o3)C2=O)cc1 |  |  |  |  |  |  |  |  |  |  | 79 | 119 | 102 | 99 | 128 | 95 |  |  |  | 107 | residual activity ([1]; compound 10.0 µM): 115%; residual activity (EIF2AK3 (human); compound 10.0 µM): 83%; residual activity (IRAK1 (human); compound 10.0 µM): 84%; residual activity (TLK1 (human); compound 10.0 µM): 108%
5 | O=C(NOCC(O)CO)c1ccc(F)c(F)c1Nc1ccc(I)cc1Cl (stereo unspecified) |  | 126 |  | 92 | 99 | 110 | 106 | 77 | 94 | 87 | 110 | 90 | 78 | 100 | 87 | 98 | 90 | 86 | 101 | 107 | residual activity ([1]; compound 10.0 µM): 87%; residual activity (IRAK1 (human); compound 1.0 µM): 81%; residual activity (IRAK1 (human); compound 10.0 µM): 79%; residual activity (TLK1 (human); compound 1.0 µM): 95%; residual activity (TLK1 (human); compound 10.0 µM): 100%
